Assay results reported in US20250276955A1, “CORONAVIRUS MAIN PROTEASE INHIBITORS AND METHODS USING SAME” (Baylor College of Medicine, priority 2021, published 2025).
“Also recorded” adds a separate entry of the source.

Assays:
[1] = molecular target: SARS-CoV-2 main protease (M^pro) (Severe acute respiratory syndrome coronavirus 2, UniProt P0DTD1); assay: Protein thermal shift stability assay (SYPRO Orange); assay type: binding
[2] = test system: HepG2 cells; assay: HepG2 cell uptake assay; assay type: in vitro ADME; conditions: 10 μM, 2 hours
Experimental: The HepG2 cells maintained in DMEM (containing 1 g/L glucose, 10% fetal bovine serum and 1% penicillin/streptomycin) were seeded in a 12-well plate (a final density of 5×10^5/well) for cell uptake assay and 96-well plate for cytotoxicity assay (a final density of 5×10^4/well). The plate was incubated at 37° C. for 24 h.
The cells in 12-well plate were treated with CDD-1713 or CDD-1976 (final concentration: 10 μM). The plate was incubated at 37° C. for another 2 hr. The medium in the plate was decanted and the cells were rinsed with 1 mL of 1×DPBS for three times. 0.5 mL of 0.25% Trypsin was added into each well and incubated for 3.5 min (at 37° C.). 1 mL of complete medium was added into each well to quench the reaction. After spinning at 350×g for 5 min, the cell pellet was reconstituted in MeOH/H2O (v/v 1/1) and CDD-1713 or CDD-1976 was extracted from 100 μL of the resulting mixture with 100 μL of ice-cold methanol. The mixtures were centrifuged at rcf 15,000 for 15 min. Three μL of the supernatant was analyzed by UHPLC-Q Exactive Orbitrap MS (Thermo Fisher Scientific, USA) equipped with 50 mm×4.6 mm column (XDB C-18, Agilent Technologies, USA). The column temperature was set at 40° C. Ultra-pure nitrogen was applied as the sheath (45 arbitrary unit), auxiliary (10 arbitrary unit), sweep (1.0 arbitrary unit) and the collision gas. […]

## COc1cc(-c2cccc3[nH]ncc23)cc(C=O)c1OCC(=O)N(C)C [CDD-1713, 2-(2-formyl-4-(1H-indazol-4-yl)-6-methoxyphenoxy)-N,N-dimethylacetamide]
[1]
  stabilization of M^pro in thermal shift assay (in words): stabilized; also recorded: concentration-dependent stabilization
[1]; 50 μM compound, […]
  ΔTm of Mpro at 50 μM compound conc.: 2.99 °C
[2]
  cell permeability in HepG2 uptake assay (in words): moderate cell permeability
